# “Also recorded” adds a separate entry of the source. Where two headings read alike, the source gives them in different places.
# Tests used:
# FLAG-Keap1 = biological target: T1, FLAG-Keap1 (Homo sapiens, UniProt Q14145); format: cell-based
# T1 construct: expressed in transfected cells; host or cells: HEK293 (transient expression)
# Procedure: FIG. 12. Supporting to FIG. 5. […] A: structural formulas of the compounds used; B: competition with Keap1 labeling. HEK293 cells transiently expressing FLAG-Keap1 were incubated with 200 μM competing compounds (sulforaphane, fisetin, quercetin, gedunin, TBHQ, ciclopirox, geldanamycin) and then further incubated with 10 μM sulfoxythiocarbate-alkyne (STCA) for 30 min at 37° C. FLAG-Keap1 was immunoprecipitated from cell lysates, subjected to click reaction with biotin azide on beads, and eluted with SDS-loading buffer. […] All values are presented as mean±SEM.
# Keap1 labeling experiments were performed as described previously (AHN et al., Proc. Natl. […]. USA., 107: 9590-9595 (2010)) with following modifications. HEK293 cells transiently expressing FLAG-Keap1 were incubated with 200 μM competing compounds (sulforaphane, fisetin, quercetin, gedunin, TBHQ, ciclopirox, geldanamycin) in serum-free DMEM for 1 h. After washing with PBS, cells were further incubated with 10 μM sulfoxythiocarbate-alkyne (STCA) for 30 min at 37° C. FLAG-Keap1 was immunoprecipitated from cell lysates, subjected to click reaction with biotin azide on beads, and eluted with SDS-loading buffer. Eluted samples were immunoblotted with Streptavidin-HRP (Pierce) and anti-FLAG antibodies (Sigma).
# astrocytes = assay: Intracellular GSH levels in astrocytes; format: cell-based, rat
# [1] = system: Neh2-luciferase fusion protein in SH-SY5Y cells; format: cell-based, human; settings: for lag-period of reporter activation: time-course of Neh2-luc activation
# Procedure: Cells were plated at the density of 25,000 cell per well using a WellMate multichannel dispenser from Matrix (Thermo Fisher Scientific) and grown overnight on DMEM/F12+GlutaMAX (100 μl per well). Then the inhibitor was added, and the plates were incubated for a fixed time interval; the medium was removed, cells lysed in 20 μL (out of which 4 μL were taken for protein measurement), then BrightGlo™ reagent (Promega) was added to the wells and luciferase activity measured on a luminometer Lmax11384 (Molecular Devices). The reporter activation was normalized to the background luminescence divided by protein concentration. Kinetics of reporter activation were measured by adding varied fixed concentrations of an inhibitor at different time points followed by simultaneous cell lysis, protein determination, and luciferase activity measurement in the whole 96-well plate; this assay format minimizes experimental error originating from the well-known instability of luciferase reagent.
# primary immature neurons = assay: Astrocyte-dependent neuroprotection in astrocyte-neuron coculture with HCA; format: cell-based, rat; settings: astrocytes pretreated 24 hr, neurons plated with HCA
# Immature neurons [2] = system: Immature neurons
# ARE-luc reporter = ARE-luc reporter time-course; format: cell-based, human
# Procedure: Human neuroblastoma SH-SY5Y cells were transfected with 1 mg of pcDNA3-Neh2LUC10, pcDNA3-ODDLUC8, pcDNA3-LUC3, and ARE-LUC/pcDNA3 (5:1) by using Lipofectamine—2000 (Invitrogen). Transfected cells were grown in the presence of 500 mg/ml Geneticin (GIBCO-Invitrogen) on DMEM/F12+ GlitaMAX (Dulbecco's modified Eagle medium Nutrient Mixture F-12 (Ham)(1:1) 1×, GIBCO 10565) medium.
# Immature neurons [3] = assay: Neuronal viability of isolated immature neurons treated with compounds; settings: 24 hours
# Nrf2-Keap1 complex = Nrf2-Keap1 complex (Homo sapiens, UniProt Q14145); assay: cell-based; format: cell-based; settings: for activation at 16 µM / activation at 32 µM: 3 h; for activation at 16 µM: read-out: Activation 100 nL; for activation at 32 µM: read-out: Activation 200 nL; for 100 nL (luminescence): 100 nL compound; for 100 nL (luminescence) / 200 nL (luminescence): screen run at 16 and 32 μM, 3 hr; for 200 nL (luminescence): 200 nL compound
# Sequence of Nrf2-Keap1 complex (Q14145 whole entry, one chain of several): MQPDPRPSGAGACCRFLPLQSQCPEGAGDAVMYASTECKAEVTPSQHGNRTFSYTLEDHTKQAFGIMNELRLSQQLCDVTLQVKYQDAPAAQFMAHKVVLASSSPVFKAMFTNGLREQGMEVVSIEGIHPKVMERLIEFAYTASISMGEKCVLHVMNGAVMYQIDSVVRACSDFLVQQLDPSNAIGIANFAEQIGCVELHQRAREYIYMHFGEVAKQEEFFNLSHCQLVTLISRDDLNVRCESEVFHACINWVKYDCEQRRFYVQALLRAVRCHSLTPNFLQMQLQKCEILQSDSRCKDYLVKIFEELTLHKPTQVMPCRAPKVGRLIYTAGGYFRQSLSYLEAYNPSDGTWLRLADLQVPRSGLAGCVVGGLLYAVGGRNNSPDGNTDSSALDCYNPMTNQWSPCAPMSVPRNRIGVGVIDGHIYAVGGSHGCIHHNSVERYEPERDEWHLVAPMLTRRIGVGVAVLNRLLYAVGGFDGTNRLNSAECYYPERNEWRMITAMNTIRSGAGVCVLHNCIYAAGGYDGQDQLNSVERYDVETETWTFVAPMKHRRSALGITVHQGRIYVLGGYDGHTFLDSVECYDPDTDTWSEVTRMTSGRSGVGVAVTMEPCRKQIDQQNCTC
# [4] = 200 μM competing compound, HEK293 cells, then 10 μM STCA 30 min
# T1 sequence (Q14145 whole entry): as the sequence (Q14145 whole entry, one chain of several) above
smiles,measurement,setting,value
"CC(Cc1ccc(O)c(O)c1)C(C)Cc1ccc(O)c(O)c1 (centres unmarked) [NDGA, nordihydroguaiaretic acid]",competition with Keap1 labeling by STCA,FLAG-Keap1; [4],poorly compete with Keap1 labeling
same,GSH in astrocytes,"astrocytes; 24 hr, 10 μM NDGA, 24 μM gedunin, 20 μM fisetin",clearly show a boost in GSH
same,type of reporter activation by time-course,[1],activation via a switch or receptor
same,astrocyte-dependent neuroprotection,primary immature neurons,induced significant neuroprotection
same,toxicity in isolated neurons,Immature neurons [2],did not induce toxicity in isolated neurons
"CC(C)(C)c1cc(O)ccc1O [TBHQ, tert-butylhydroquinone, reference compound]",delay of ARE-luc reporter response,ARE-luc reporter,3 h
same,competition with Keap1 labeling by STCA,FLAG-Keap1; [4],very modest competition; also recorded: competes very poorly
same,type of reporter activation by time-course,[1],immediate activation but gradual stabilization over time
same,activation of Neh2-luc reporter,"[1]; positive control, FIG. 1B",more than 10 fold
same,toxicity in isolated neurons,Immature neurons [2],neurotoxic effects
O=c1c(O)c(-c2ccc(O)c(O)c2)oc2cc(O)ccc12 [FISETIN],toxicity in isolated neurons,Immature neurons [3],did not induce toxicity in isolated neurons
same,competition with Keap1 labeling by STCA,FLAG-Keap1; [4],very modest competition; also recorded: poorly compete with Keap1 labeling
same,GSH in astrocytes,astrocytes,does not show the same level of enhancement
same,type of reporter activation by time-course,[1],activation via a switch or receptor
same,activation at 16 µM,Nrf2-Keap1 complex,224%
same,activation at 32 µM,Nrf2-Keap1 complex,38%
same,100 nL (luminescence),Nrf2-Keap1 complex; Table 2,3360
same,200 nL (luminescence),Nrf2-Keap1 complex; Table 2,1320
same,astrocyte-dependent neuroprotection,primary immature neurons,induced significant neuroprotection
"Nc1ccccc1N [oPD, ortho-phenylene diamine]",lag-period of reporter activation,[1],40 to 50 min
"Oc1ccccc1O [catechol, o-catechol]",lag-period of reporter activation,[1],20 min
"O=c1c(O)c(-c2ccc(O)c(O)c2)oc2cc(O)cc(O)c12 [quercetin, 3,5,7,3′,4′-pentahydroxyflavone]",competition with Keap1 labeling by STCA,FLAG-Keap1; [4],very modest competition
same,type of reporter activation by time-course,[1],immediate activation but gradual stabilization over time
"Cc1cc(C2CCCCC2)n(O)c(=O)c1 [ciclopirox, reference compound]",competition with Keap1 labeling by STCA,FLAG-Keap1; [4],no competition with Keap1 labeling
"C[S+]([O-])CCCCN=C=S (centres unmarked) [sulforaphane, reference compound]",competition with Keap1 labeling by STCA,FLAG-Keap1,decent competition; also recorded: inhibits Keap1 labeling completely
same,type of reporter activation by time-course,[1],immediate activation but gradual stabilization over time
CC(=O)O[C@@H]1C[C@H]2C(C)(C)C(=O)C=C[C@]2(C)[C@H]2CC[C@@]3(C)[C@H](c4ccoc4)OC(=O)[C@H]4O[C@]43[C@@]21C [GEDUNIN],toxicity in isolated neurons,Immature neurons [3],did not induce toxicity in isolated neurons
same,competition with Keap1 labeling by STCA,FLAG-Keap1; [4],very modest competition; also recorded: poorly compete with Keap1 labeling
same,GSH in astrocytes,astrocytes,clearly show a boost in GSH
same,type of reporter activation by time-course,[1],immediate activation but gradual stabilization over time; also recorded: immediate effect
same,activation at 16 µM,Nrf2-Keap1 complex,222%
same,activation at 32 µM,Nrf2-Keap1 complex,184%
same,100 nL (luminescence),Nrf2-Keap1 complex; Table 2,4812
same,200 nL (luminescence),Nrf2-Keap1 complex; Table 2,3708
same,astrocyte-dependent neuroprotection,primary immature neurons,induced significant neuroprotection
"COC1=C2C[C@@H](C)C[C@H](OC)[C@H](O)[C@@H](C)/C=C(\C)[C@H](OC(N)=O)[C@@H](OC)/C=C\C=C(/C)C(=O)NC(=CC1=O)C2=O [geldanamycin, reference compound]",activation effect,[1]; in the range of 0.5-1.5 μM,2-3 fold
Nc1nc(N)c2nc(-c3ccccc3)c(N)nc2n1 [reference compound],activation at 16 µM,Nrf2-Keap1 complex,405%
same,activation at 32 µM,Nrf2-Keap1 complex,23%
same,100 nL (luminescence),Nrf2-Keap1 complex; Table 1A,3914
same,200 nL (luminescence),Nrf2-Keap1 complex; Table 1A,872
COc1cc(O)c(C(=O)/C=C/c2ccccc2)c(OC)c1 [FLAVOKAWAINB],activation at 16 µM,Nrf2-Keap1 complex,144%
same,activation at 32 µM,Nrf2-Keap1 complex,-21%
same,100 nL (luminescence),Nrf2-Keap1 complex; Table 2,2564
same,200 nL (luminescence),Nrf2-Keap1 complex; Table 2,8
